The values that follow come from patent US6503552B1, “Adding flavidin to a composition as an anti-oxidant” (Council of Scientific and Industrial Research, priority 2000, dated 2003).

This assay in a line: antioxidant activity in β-carotene-linoleate system (bleaching of β-carotene). The class given is biochemical. To be noted: for antioxidant activity: 120 min incubation at 50° C.; for bleaching time of β-carotene: different concentrations, controls (no additive) decolorized within 120 min. On the procedure:
In another embodiment of the present invention, evaluation of the antioxidant activity of flavidin has been carried out employing the procedure of Hiddgi et. al. (Phytochem, 37, 1585, 1994) with minor modifications said method comprises the following steps: […]
i) preparing assay reagent of β-carotene in chloroform by mixing linoleic acid and 200 mg of Tween 40 (polyoxyethylene sorbitan monopalmitate), ii) warming polyoxyethylene sorbitan monopalmitate (Tween 40) at a temperature of about 50° C. in a water bath, iii) removing chloroform from assay reagent at a temperature of about 40° C. under vacuum using a rotary evaporator, iv) diluting the resulting solution with triple distilled water and mixing the resulting emulsion well for one minute, v) further diluting the resulting emulsion with oxygenated water, vi) transferring aliquots of the reagent as in step (v) into tubes containing 0.2 ml of desired amount of antioxidant in ethanol, vii) keeping a control of 0.2 ml of ethanol and 4 ml of reagent as prepared in step (v). viii) immediately taking optical density of all sample (t=0) and also taking the O.D at 15 min. interval for 2 hr. (t=120), ix) incubating the tubes in water bath at a temperature of about 50° C. between each measurement taken, and x) measuring the color till the color of β-carotene disappears.
The procedure of Hiddgo et al., (Phytochemistry, 37, 1585, 1994) was followed for testing of antioxidant activity of the flavidin with minor modification. The assay reagent was prepared as follows: 0.2 mg of β-carotene in 0.5 ml of chloroform was added to 20 mg of linoleic acid and 200 mg of Tween 40 (polyoxyethylene sorbitan monopalmitate) were mixed. Tween 40 was warmed in a water bath at 50° C. before use. The chloroform was removed at 40° C. under vacuum using a rotary evaporator. The resulting solution was immediately diluted with 10 ml of triple-distilled water and the emulsion was mixed well for 1 min. The emulsion was further diluted with 40 ml oxygenated water. Four ml aliquots of this reagent were transferred into different tubes containing 0.2 ml of the desired amount of antioxidant in ethanol. A control consisting of 0.2 ml of ethanol and 4 ml of emulsion was prepared. Optical density of all samples were taken immediately (t=0) and at 15 min intervals for 2 h (t=120). The tubes were placed in a water bath at 50° C. between measurements. All determinations were preformed in duplicate. Measurement of color was recorded until the color of β-carotene disappears.
The antioxidant activity (AA) of the isolated compound was evaluated in terms of bleaching the β-carotene using the formula of Hiddgo et al., (Phytochemistry, 37, 1585, 1994). AA=100[1−(Ao−At)/(A^oo−A^ot)] where Ao and A^o are the absorbance measured at the beginning of the incubation for flavidin and the control, respectively, and At and A^ot are the absorbance measured in the presence and absence of the flavidin after incubation for 120 min.

With `Oc1cc2c3c(c1)COc1cc(O)cc(c1-3)CC2` [flavidin, 2,7-dihydroxy 9,10-dihydrophenanthro-4,5 bcd-pyran], the “bleaching time of β-carotene” value was “enhanced”. Moreover, for the setting “10 ppm”, the antioxidant activity amounted to 68.5%. This compound came in with an antioxidant activity (25 ppm) of 79%. Under “50 ppm, maximum activity”, the antioxidant activity is given as 90.2%.

On to `COc1ccc(O)c(C(C)(C)C)c1` [BHA, butylated hydroxy anisole, reference compound], for which the “bleaching time of β-carotene” value was “enhanced”.
